We go through 22 compounds from patent US12310963B2, “Pyrazole derivatives and use thereof” (Tarapeutics Science Inc., priority 2019, dated 2025).

Test [1] deals with BaF3-tel-PDGFRα (stably expressing PDGFRα kinase). As to the kind of experiment: Growth of BaF3-tel-PDGFRα cells, Cell Titer-Glo, 72 h. It counts as cell-based, mouse. The source says: (§1) In this example, mouse primary B cell BaF3 (purchased from ATCC, U.S.A.) was used. In addition, in this example, mouse BaF3-tel-PDGFRα (stably expressing PDGFRα kinase), mouse BaF3-tel-PDGFRβ (stably expressing PDGFRβ kinase), BaF3-P210 (stably expressing ABL kinase), BaF3-P210-T315I (stably expressing ABL-T315I kinase), BaF3-FL-BRAF-V600E (stably expressing BRAF-V600E kinase), BaF3-TEL-cKIT (stably expressing cKIT kinase), BaF3-TEL-VEGFR2 (stably expressing VEGFR2 kinase), BaF3-TEL-FGFR2 (stably expressing FGFR2 kinase) were also used. The above-mentioned cell trains were all constructed in our laboratory by the method as follows. The sequences of human BCR-ABL (P210 or P210/T315I mutated), full-length BRAF-V600E, cKIT, VEGFR2, FGFR2, PDGFRα, PDGFRβ kinase region were amplified respectively via PCR, and inserted respectively into a MSCV-Puro vector (purchased from Clontech) having a N-terminal TEL fragment and/or NPM fragment and/or TPR fragment, and stably transferred into mouse BaF3 cells by the retroviral method, and the growth factor IL-3 was removed. Eventually, cell lines which are transferred into proteins depending on PDGFRα, PDGFRβ were obtained.
(§2) In this example, solutions of the test compound at different concentrations (0.000508 μM, 0.00152 μM, 0.00457 μM, 0.0137 μM, 0.0411 μM, 0.123 μM, 0.370 μM, 1.11 μM, 3.33 μM, 10 μM) were added to the above cells. The cells were incubated for 72 hours.
(In general: In ATP-based viability assays light output follows the ATP content of the culture.)

Test [2] relates to BaF3-tel-PDGFRβ (stably expressing PDGFRβ kinase). Briefly: Growth of BaF3-tel-PDGFRβ cells, Cell Titer-Glo, 72 h. It counts as cell-based, mouse.
Description: as §1, §2

For test [3], the system named is BaF3. As to the kind of experiment: Growth of parental BaF3 cells, Cell Titer-Glo, 72 h. To be noted: Mus musculus. It counts as cell-based.
Description: as §1, §2

`Cc1ccc(NC(=O)c2cncc(C(F)(F)F)c2)cc1-n1cc(-c2cncc(N3CCN(C)CC3)c2)cn1` [Compound 16, N-(4-methyl-3-(4-(5-(4-methylpiperazin-1-yl)pyridin-3-yl)-1H-pyrazol-1-yl)phenyl)-5-(trifluoromethyl)nicotinamide]: the GI50 (usually the concentration at which growth is held to half of that of the control) was less than 0.0015 µM in test [1], less than 0.0015 µM in test [2] and more than 10 µM in test [3].

With `Cc1ccc(NC(=O)c2cc(C(F)(F)F)ccn2)cc1-n1cc(-c2cncc(N3CC4(COC4)C3)c2)nn1` [Compound 41, N-(3-(4-(5-(2-oxa-6-aza-spiro[3.3]hept-6-yl]pyridin-3-yl)-1H-1,2,3-triazol-1-yl)-4-methylphenyl)-4-(trifluoromethyl)picolinamide], the concentration for 50% growth inhibition (GI50) in test [1] was less than 0.01 µM; in test [2], less than 0.01 µM; in test [3], 3.66 µM.

Turning to `Cc1ccc(NC(=O)c2ccnc(C(F)(F)F)c2)cc1-n1cc(-c2cncc(N3CCN(C)CC3)c2)nn1` [Compound 19, N-(4-methyl-3-(4-(5-(4-methylpiperazin-1-yl)pyridin-3-yl)-1H-1,2,3-triazol-1-yl)phenyl)-2-(trifluoromethyl)isonicotinamide], the 50% growth inhibitory concentration (GI50) in test [1] is less than 0.01 µM; in test [2] it was less than 0.01 µM; in test [3], more than 10 µM.

As for `Cc1ccc(NC(=O)c2ccnc(C(F)(F)F)c2)cc1-n1cc(-c2cncc(OC3COC3)c2)cn1` [Compound 7, N-(4-methyl-3-(4-(5-(oxetan-3-yloxy)pyridin-3-yl)-1H-pyrazol-1-yl)phenyl)-2-(trifluoromethyl)isonicotinamide], the figures for the 50% growth inhibitory concentration (GI50) in test [1], in test [2] and in test [3] were less than 0.0003 µM, 0.001 µM and more than 10 µM, respectively.

With `Cc1ccc(NC(=O)c2cncc(C(F)(F)F)c2)cc1-n1cc(-c2cncc(N3CC4(COC4)C3)c2)cn1` [Compound 34, N-(3-(4-(5-(2-oxa-6-aza-spiro[3.3]hept-6-yl]pyridin-3-yl)-1H-pyrazol-1-yl)-4-methylphenyl)-5-(trifluoromethyl)nicotinamide], the GI50 was less than 0.01 µM in test [1], less than 0.01 µM in test [2] and more than 10 µM in test [3].

Regarding `CN1CCN(c2cncc(-c3cn(-c4cc(NC(=O)c5cc(C(F)(F)F)ccn5)ccc4F)nn3)c2)CC1` [Compound 27, N-(4-fluoro-3-(4-(5-(4-methylpiperazin-1-yl)pyridin-3-yl)-1H-1,2,3-triazol-1-yl)phenyl)-4-(trifluoromethyl)picolinamide], the values for the GI50 in test [1], in test [2] and in test [3] were less than 0.01 µM, less than 0.01 µM and 4.73 µM, respectively.

For `Cc1ccc(NC(=O)c2cccc(C(F)(F)F)n2)cc1-n1cc(-c2cnccc2OCCN2CCOCC2)cn1` [Compound 4, N-(4-methyl-3-(4-(4-(2-morpholinoethoxy)pyridin-3-yl)-1H-pyrazol-1-yl)phenyl)-6-(trifluoromethyl)picolinamide], the GI50 was less than 0.0003 µM in test [1], 0.0032 µM in test [2] and approximately 10 µM in test [3].

In the case of `Cc1ccc(NC(=O)c2cccc(Cl)n2)cc1-n1cc(-c2cncc(N3CCN(C)CC3)c2)nn1` [Compound 22, 6-chloro-N-(4-methyl-3-(4-(5-(4-methylpiperazin-1-yl)pyridin-3-yl)-1H-1,2,3-triazol-1-yl)phenyl)picolinamide], the GI50 is less than 0.01 µM in test [1], less than 0.01 µM in test [2] and 0.96 µM in test [3].

On to `Cc1ccc(NC(=O)c2cccc(Cl)n2)cc1-n1cc(-c2cncc(N3CCN(C)CC3)c2)cn1` [Compound 17, 6-chloro-N-(4-methyl-3-(4-(5-(4-methylpiperazin-1-yl)pyridin-3-yl)-1H-pyrazol-1-yl)phenyl)picolinamide], for which the GI50 is less than 0.0015 µM in test [1], less than 0.0015 µM in test [2] and 2.8 µM in test [3].

On to `Cc1ccc(NC(=O)c2cc(C(F)(F)F)ccn2)cc1-n1cc(-c2cncc(N3CCN(C)CC3)c2)cn1` [Compound 15, N-(4-methyl-3-(4-(5-(4-methylpiperazin-1-yl)pyridin-3-yl)-1H-pyrazol-1-yl)phenyl)-4-(trifluoromethyl)picolinamide], for which the concentration for 50% growth inhibition (GI50) in test [1] is less than 0.0015 µM; in test [2] it was less than 0.0015 µM; in test [3], 3.9 µM.

As for `Cc1ccc(NC(=O)c2cccc(C(F)(F)F)n2)cc1-n1cc(-c2cnccc2OCC2CCCC2)cn1` [Compound 10, N-(3-(4-(4-(cyclopentylmethoxy)pyridin-3-yl)-1H-pyrazol-1-yl)-4-methylphenyl)-6-(trifluoromethyl)picolinamide], the values for the GI50 in test [2] and in test [3] were 0.062 µM and more than 10 µM, respectively.

With `Cc1ccc(NC(=O)c2cccc(F)n2)cc1-n1cc(-c2cncc(N3CCN(C)CC3)c2)cn1` [Compound 14, 6-fluoro-N-(4-methyl-3-(4-(5-(4-methylpiperazin-1-yl)pyridin-3-yl)-1H-pyrazol-1-yl)phenyl)picolinamide], the GI50 is less than 0.0015 µM in test [1], less than 0.0015 µM in test [2] and 8.4 µM in test [3].

As for `CN1CCN(c2cncc(-c3cn(-c4cc(NC(=O)c5cncc(C(F)(F)F)c5)ccc4F)nn3)c2)CC1` [Compound 26, N-(4-fluoro-3-(4-(5-(4-methylpiperazin-1-yl)pyridin-3-yl)-1H-1,2,3-triazol-1-yl)phenyl)-5-(trifluoromethyl)nicotinamide], the GI50 in test [1] was less than 0.01 µM; in test [2], less than 0.01 µM; in test [3], 4.74 µM.

For `Cc1ccc(NC(=O)c2cncc(C(F)(F)F)c2)cc1-n1cc(-c2cncc(N3CC4(COC4)C3)c2)nn1` [Compound 40, N-(3-(4-(5-(2-oxa-6-aza-spiro[3.3]hept-6-yl]pyridin-3-yl)-1H-1,2,3-triazol-1-yl)-4-methylphenyl)-5-(trifluoromethyl)nicotinamide], the GI50 in test [1] is less than 0.01 µM; in test [2], less than 0.01 µM; in test [3] it was 9.99 µM.

As for `CN1CCN(c2cncc(-c3cn(-c4cc(NC(=O)c5cccc(Cl)n5)ccc4F)nn3)c2)CC1` [Compound 28, 6-chloro-N-(4-fluoro-3-(4-(5-(4-methylpiperazin-1-yl)pyridin-3-yl)-1H-1,2,3-triazol-1-yl)phenyl)picolinamide], the results for the concentration for 50% growth inhibition (GI50) in test [1], in test [2] and in test [3] were less than 0.01 µM, less than 0.01 µM and 3.9 µM, respectively.

In the case of `Cc1ccc(NC(=O)c2cc(C(F)(F)F)ccn2)cc1-n1cc(-c2cncc(N3CCN(C)CC3)c2)nn1` [Compound 21, N-(4-methyl-3-(4-(5-(4-methylpiperazin-1-yl)pyridin-3-yl)-1H-1,2,3-triazol-1-yl)phenyl)-4-(trifluoromethyl)picolinamide], the GI50 is less than 0.01 µM in test [1], less than 0.01 µM in test [2] and 2.84 µM in test [3].

`Cc1ccc(NC(=O)c2ccnc(C(F)(F)F)c2)cc1-n1cc(-c2cnccc2OCCN2CCOCC2)cn1` [Compound 5, N-(4-methyl-3-(4-(4-(2-morpholinoethoxy)pyridin-3-yl)-1H-pyrazol-1-yl)phenyl)-2-(trifluoromethyl)isonicotinamide]: the concentration for 50% growth inhibition (GI50) is less than 0.0003 µM in test [1], less than 0.0003 µM in test [2] and approximately 10 µM in test [3].

For `Cc1ccc(NC(=O)c2cccc(C(F)(F)F)n2)cc1-n1cc(-c2cncc(N3CC4(COC4)C3)c2)nn1` [Compound 38, N-(3-(4-(5-(2-oxa-6-aza-spiro[3.3]hept-6-yl]pyridin-3-yl)-1H-1,2,3-triazol-1-yl)-4-methylphenyl)-6-(trifluoromethyl)picolinamide], the GI50 in test [1] was less than 0.01 µM; in test [2], less than 0.01 µM; in test [3], more than 10 µM.

As for `Cc1ccc(NC(=O)c2ccnc(C(F)(F)F)c2)cc1-n1cc(-c2cncc(N3CCOCC3)c2)cn1` [Compound 12, N-(4-methyl-3-(4-(5-morpholinopyridin-3-yl)-1H-pyrazol-1-yl)phenyl)-2 (trifluoromethyl)isonicotinamide], the GI50 in test [2] is 0.001 µM; in test [3] it was approximately 10 µM.

Regarding `Cc1ccc(NC(=O)c2ccnc(C(F)(F)F)c2)cc1-n1cc(-c2cnccc2OCC2CCCC2)cn1` [Compound 11, N-(3-(4-(4-(cyclopentylmethoxy)pyridin-3-yl)-1H-pyrazol-1-yl)-4-methylphenyl)-2-(trifluoromethyl)isonicotinamide], the GI50 was 0.0011 µM in test [2] and more than 10 µM in test [3].

As for `Cc1ccc(NC(=O)c2cccc(C(F)(F)F)n2)cc1-n1cc(-c2cnccc2OCC2CCCO2)cn1` (stereo not shown) [Compound 8, N-(4-methyl-3-(4-(4-((tetrahydrofuran-2-yl)methoxy)pyridin-3-yl)-1H-pyrazol-1-yl)phenyl)-6-(trifluoromethyl)picolinamide], the GI50 in test [2] was 0.0013 µM; in test [3], more than 10 µM.

Regarding `Cc1ccc(NC(=O)c2ccnc(C(F)(F)F)c2)cc1-n1cc(-c2cnccc2OCC2CCCO2)cn1` (stereo not shown) [Compound 9, N-(4-methyl-3-(4-(4-((tetrahydrofuran-2-yl)methoxy)pyridin-3-yl)-1H-pyrazol-1-yl)phenyl)-2-(trifluoromethyl)isonicotinamide], the GI50 in test [2] is less than 0.0003 µM; in test [3], more than 10 µM.
